Source: patent US8633165B2, “Neuroprotective effects of 2DG in traumatic brain injury” (Wisconsin Alumni Research Foundation, priority 2010, dated 2014)
“Also recorded” adds a separate entry of the source.

Columns and labels:
[1] = test system: rats with TBI induced by CCI in fronto-parietal and temporo-parietal cortex; assay: Lateral ventricle volume by T2W MRI after TBI induced by controlled cortical impact (CCI); format: in vivo, rat; conditions: for proportional change in lateral ventricle volume from 1 week to 1 month following injury: in vivo T2W MRI, 2DG 40 mg/kg IP 30 min prior to CCI, then 250 mg/kg immediately after and twice daily for 2 weeks, change significantly greater for saline than 2DG (p=0.015)
Description: “Fast” rats and “slow” rats from the 9th-11th generations selected by these procedures were subjected to TBI induced by the method of controlled cortical impact (CCI) using published protocols (see Dixon et al., 1991, J. Neuro. Meth. 39: 253-262). During the induction of TBI by CCI, the rats were deeply anesthetized with isoflurane (3% for induction, 1.5-2.5% for maintenance) and were placed in a stereotaxic frame. After craniotomy with the dura intact, anesthesia was reduced to 1% isoflurane for a 5-min equilibration period and CCI was performed over temporo-parietal cortex (−1 to −6 mm from bregma, below lateral skull ridge) and fronto-parietal cortex (+5.3 to −0.3 mm from bregma, below lateral skull ridge), which are more and less likely, respectively, to damage the hippocampus and amygdala. Brain lesions were induced by a digitally-controlled contusion device using a pneumatically driven impactor with a sterilized rounded stainless steel tip (3-4 mm in diameter) which compresses the cortex with a specified velocity, depth, and dwell time varied to induce a range of injury severity (ranging from mild, with parameters of 4.0 m/s, 1.0 mm deformation, dwell time 50 mS, to severe, at 6.0 m/s, 2.5 mm deformation, dwell time 50 mS). […]
The effects of 2DG on TBI induced by CCI in fronto-parietal and temporo-parietal cortex were evaluated in “fast” kindling-susceptible and “slow” kindling-resistant rats. […]
(§1) The effects of 2DG treatment on the location, severity, and progression of induced cortical and subcortical damage were assessed in serial in vivo magnetic resonance imaging (MRI) and diffusion tensor imaging (DTI) studies at 1 week, 1 month, and 6 months after TBI as well as high-resolution ex vivo DTI of brains harvested from the same rats following the final in vivo imaging session. DTI is an advanced MRI modality that offers a unique view of the brain in its ability to report quantitative microstructural information at the whole-brain and in vivo scales. […]

[2] = test system: rats with TBI induced by CCI in fronto-parietal and temporo-parietal cortex; assay: Hippocampal DTI measures (MD, FA laterality index) after TBI induced by CCI; format: in vivo, rat; conditions: for in vivo hippocampal FA laterality index (LRI): fast and slow kindling strains, strain by treatment interaction p=0.088, saline vs 2DG at 1 month p=0.08; for change in in vivo ipsilateral hippocampal MD between 1 week and 6 months: paired t-test: saline p=0.0026, 2DG p=0.289, treatment by time interaction p=0.064
Description: (§2) “Fast” rats and “slow” rats from the 9th-11th generations selected by these procedures were subjected to TBI induced by the method of controlled cortical impact (CCI) using published protocols (see Dixon et al., 1991, J. Neuro. Meth. 39: 253-262). During the induction of TBI by CCI, the rats were deeply anesthetized with isoflurane (3% for induction, 1.5-2.5% for maintenance) and were placed in a stereotaxic frame. After craniotomy with the dura intact, anesthesia was reduced to 1% isoflurane for a 5-min equilibration period and CCI was performed over temporo-parietal cortex (−1 to −6 mm from bregma, below lateral skull ridge) and fronto-parietal cortex (+5.3 to −0.3 mm from bregma, below lateral skull ridge), which are more and less likely, respectively, to damage the hippocampus and amygdala. Brain lesions were induced by a digitally-controlled contusion device using a pneumatically driven impactor with a sterilized rounded stainless steel tip (3-4 mm in diameter) which compresses the cortex with a specified velocity, depth, and dwell time varied to induce a range of injury severity (ranging from mild, with parameters of 4.0 m/s, 1.0 mm deformation, dwell time 50 mS, to severe, at 6.0 m/s, 2.5 mm deformation, dwell time 50 mS). Anesthesia was then administered at maintenance levels (1.5-2.5%), the craniotomy and wound were closed, and the rats were allowed to recover. The location, severity, and progression of induced cortical and subcortical damage was examined by serial in vivo magnetic resonance imaging (MRI) and diffusion tensor imaging (DTI) techniques at 1 week, 1 month, and 6 months after TBI.
(§3) The effects of 2DG on TBI induced by CCI in fronto-parietal and temporo-parietal cortex were evaluated in “fast” kindling-susceptible and “slow” kindling-resistant rats. Half of the rats from these strains received 2DG at 40 mg/kg IP 30 min prior to CCI, and then 250 mg/kg immediately after and twice daily for 2 weeks. These rats were compared to control groups with TBI induced by CCI that were treated only with an equivalent volume of saline. Both treatment groups were also compared to sham-injured rats that underwent all aspects of the experimental manipulations except for CCI.
The effects of 2DG treatment on the location, severity, and progression of induced cortical and subcortical damage were assessed in serial in vivo magnetic resonance imaging (MRI) and diffusion tensor imaging (DTI) studies at 1 week, 1 month, and 6 months after TBI as well as high-resolution ex vivo DTI of brains harvested from the same rats following the final in vivo imaging session. DTI is an advanced MRI modality that offers a unique view of the brain in its ability to report quantitative microstructural information at the whole-brain and in vivo scales. The most commonly reported DTI indices are fractional anisotropy (FA), which characterizes the “directionalness” of tissue structure (e.g. high in white matter and low in grey matter and CSF) and mean diffusion (MD), which characterizes water status (“free” or “restricted”) due to cellular barriers (e.g. high in CSF and low in tissue). Both indices are known to be sensitive to damage and other structural changes such as tissue/circuit reorganization. This makes DTI an attractive modality to investigate disorders with known or hypothesized structural abnormalities such as TBI.
MRI scanning was performed using a Varian 4.7 T scanner and a quadrature birdcage volume coil was used to transmit and receive the MRI signal. […]

[3] = test system: rats with TBI induced by CCI in fronto-parietal and temporo-parietal cortex; assay: Corpus callosum and fornix DTI (FA) after TBI induced by CCI; format: in vivo, rat; conditions: for ex vivo corpus callosum (CC) FA: CCI location by treatment interaction p=0.038, fronto-parietal CCI
Description: as §2, §3, §1

[4] = test system: rats; conditions: rat, in vivo, 250 mg/kg
Protocol: For example, dosage amount and interval of 2-DG administration can be adjusted individually to reduce incidence, frequency, duration or intensity of deleterious sequellae of TBI, particularly PTE, using doses of 40 mg/kg or less to higher as tolerated to reduce seizure frequency and minimize toxicity. […] A practitioner skilled in the art can adjust dosage in the range of 2-250 mg/kg and the timing of administration to produce prolonged neuroprotectant effects. Efficacious dosage amounts can be adjusted in children and adults, for establishing effective dosage levels.

[5] = test system: hippocampal brain slices; conditions: evoked by 7.5 mM [K+]o, 4-amino-pyridine, bicuculline, DHPG; Stafstrom et al., 2009; cited from earlier work
[6] = test system: mice; conditions: Stafstrom et al., 2009; cited from earlier work
[7] = test system: rats; conditions: perforant path and olfactory bulb stimulation in rats; Garriga-Canut et al., 2006; Stafstrom et al., 2009; cited from earlier work
[8] = Mattson, 1999; cited from earlier work
[9] = test system: ischemic rat; conditions: Combs et al., 1986; cited from earlier work

Question: With `O=CC[C@@H](O)[C@H](O)[C@H](O)CO` [2DG, 2-deoxy-D-glucose] as the molecule, how does the “ex vivo lateral ventricle volumes” value ([1]; brains harvested after 6 months, ANOVA treatment main effect p=0.16, strain by treatment interaction p=0.06, greater volumes for saline, most evident in slow-kindled strain) read?
Answer: protection from gross tissue loss

Question: What about the “proportional change in lateral ventricle volume from 1 week to 1 month following injury” value [1] of the same molecule?
Answer: reduced progressive volumetric changes

Question: What about the “proportional change in lateral ventricle volume from 1 week to 1 month following injury” value ([1]; listed as 2-DG) of the same molecule?
Answer: p<0.05 for the saline but not the 2-DG treated group

Question: What about the “ex vivo ipsilateral hippocampal MD” value ([2]; ANOVA main effect for treatment p=0.002, compared with saline and sham-injured controls) of the same molecule?
Answer: restored MD measurements to the range of normal values observed in controls

Question: And the “in vivo hippocampal FA laterality index (LRI)” value [2]?
Answer: appeared to abolish the pattern of increased LRI over 1 week to 1 month in both strains

Question: And the “in vivo hippocampal FA laterality index (LRI)” value ([2]; listed as 2-DG)?
Answer: reduces FA LRI in both strains

Question: What about the “change in in vivo ipsilateral hippocampal MD between 1 week and 6 months” value [2] of the same molecule?
Answer: not for the 2DG treated groups

Question: What about the “change in in vivo ipsilateral hippocampal MD between 1 week and 6 months” value ([2]; listed as 2-DG) of the same molecule?
Answer: no significant change

Question: What about the “ex vivo corpus callosum (CC) FA” value [3] of the same molecule?
Answer: FA was highest for fronto-parietal, 2DG treated rats

Question: And the “ex vivo corpus callosum (CC) FA” value ([3]; listed as 2-DG)?
Answer: reduced in all groups except for 2-DG treated rats with fronto-parietal CCI

Question: What about the “ex vivo fornix FA” value ([3]; fronto-parietal CCI vs temporo-parietal CCI, 2-DG vs saline) of the same molecule?
Answer: reduced in all groups except for 2-DG treated rats with fronto-parietal CCI

Question: And the “in vivo anterior corpus callosum (aCC) FA, change from one week to six months” value ([3]; paired t-test: 2DG p=0.0099, saline p=0.8396, treatment by time interaction p=0.073)?
Answer: increase in aCC FA by 6 months post-CCI that nearly reaches control values; also recorded: significant change from one week to six months

Question: And the tolerability [4]?
Answer: well tolerated

Question: And the “epileptic discharges evoked in hippocampal brain slices” value [5]?
Answer: acute in vitro reduction of epileptic discharges

Question: And the “anticonvulsant activity against seizures evoked by 6 Hz and audiogenic stimulation” value [6]?
Answer: acute in vivo anticonvulsant activity

Question: And the “slowing of progression of kindled seizures” value [7]?
Answer: 2 fold

Question: And the “brain damage initiated by seizures induced by kainic acid” value [8]?
Answer: reduced brain damage

Question: And the “brain damage initiated by ischemia” value [9]?
Answer: reduced brain damage
